These results are taken from US7674810B2, “1,1-dioxo-1H-1Λ6-benzo[d]isothiazol-3-yl)-4-hydroxy-1,5-dihydro-pyrrol-2-one inhibitors of HCV polymerase” (Roche Palo Alto LLC, priority 2006, dated 2010).

SMILES strings stand for the structures.

What is called IC50 is the concentration that inhibits the measured activity by half. For orientation: melting point means the temperature, or range, at which the solid turns liquid.

One data set addresses T1, HCV NS5B570n-BK (Hepatitis C virus genotype 1b, UniProt P26663).
T1 construct: histidine tag (N); made in house; host or cells: E. coli strain M15
Kind of data set: HCV NS5B RNA Polymerase Activity. In kind it is biochemical, HCV BK strain. As to conditions: poly A:oligo U16, tritiated UTP, 2 h at 30° C. The method, then: The enzymatic activity of HCV NS5B570n-BK is measured as incorporation of radiolabeled nucleotide monophosphates into acid insoluble RNA products. Unincorporated radiolabel substrate is removed by filtration and scintillant is added to the washed and dried filter plate containing radiolabeled RNA product. The light emitted by the scintillant is proportional to the amount of RNA product generated by NS5B570n-BK at the endpoint of the reaction.
The N-terminally histidine tagged HCV polymerase, derived from HCV BK strain, genotype 1b (NS5B570n-BK) contains a 21 amino acid deletion at the C-terminus relative to the full-length HCV polymerase and is purified from E. coli strain M15. The construct containing the coding sequence of HCV BK strain amino acid residues 2421-2999 (GenBank accession number M58335) downstream of a Taq promoter expression cassette was inserted into plasmid constructs. The plasmid constructs are transformed in E. coli and colonies are inoculated and grown overnight in 10 L of Terrific broth (Tartoff and Hobbs) supplemented with 100 μg/mL ampicillin at 37° C. Protein expression is induced by addition of 1 mM isopropyl-β-D -thiogalactopyranoside (IPTG), when optical densities reaches between 1.5 and 3.5 OD600 and the culture is then incubated for 16- to 18 h at 22° C. NS5B570n -BK is purified to homogeneity using a three step protocol including subsequent column chromatography on Ni-NTA, SP-Sepharose HP and Superdex 75 resins.
Each 50 μl enzymatic reaction contains 8:4 μg/mL poly A:oligo U16 (template:primer), 200 nM NS5B570n-BK enzyme, 2.1 μCi of tritiated UTP (Perkin Elmer catalog no. TRK -412; specific activity: 30 to 60 Ci/mmol; stock solution concentration from 7.5×10^−5 M to 20.6×10^−6 M), 1 μM ATP, CTP, and GTP, 40 mM Tris-HCl pH 8.0, 2 to 40 mM NaCl, 4 mM DTT (dithiothreitol), 4 mM MgCl2, and 5 μl of compound serial diluted in DMSO. Reaction mixtures are assembled in MADVN0B 96-well filter plates (Millipore Co.) and incubated for 2 h at 30° C. Reactions are stopped by addition of 10% (v/v) trichloroacetic acid and incubated for 40 min at 4° C. Reactions are filtered, washed with 6 reaction volumes of 10% (v/v) trichloroacetic acetic acid, 2 reaction volumes of 70% (v/v) ethanol, air dried, and 25 μl of scintillant (Microscint 20, Perkin-Elmer) is added to each reaction well.
The amount of light emitted from the scintillant is converted to counts per minute (CPM) on a Topcount® plate reader (Perkin-Elmer, Energy Range: Low, Efficiency Mode: Normal, Count Time: 1 min, Background Subtract: none, Cross talk reduction: Off).
Data is analyzed with GraphPad® Prism® and/or Microsoft® Excel®. The reaction in the absence of enzyme is used to determine the background signal, which is subtracted from the enzymatic reactions. Positive control reactions are performed in the absence of compound, from which the background corrected activity is set as 100% polymerase activity. All data is expressed as a percentage of the positive control. The compound concentration at which the enzyme-catalyzed rate of RNA synthesis is reduced by 50% (IC50) is calculated by fitting equation (i) to
[formula] the data, where “Y” corresponds to the relative enzyme activity (in %), “% Min” is the residual relative enzymatic activity at saturating compound concentration, “% Max” is the maximal relative enzymatic activity compared to positive control, X corresponds to the compound concentration, and “S” is the Hill coefficient (or slope). […]

Data set [1] has as its system Renilla luciferase HCV replicon cells (2209-23). Kind of data set: Renilla luciferase Assay (HCV replicon). The format is cell-based, HCV; human hepatoma Huh7 cells. As to conditions: 72 h; replicon cell line 2209-23, three days incubation; read-out: R. luciferase Activity IC50. On the technique in general: A replicon is a self-replicating genome or part of one, used to study replication in cells.

The subject of the next data set is HCV. As to conditions: cited from earlier work.

T1 sequence (P26663 2421-2999): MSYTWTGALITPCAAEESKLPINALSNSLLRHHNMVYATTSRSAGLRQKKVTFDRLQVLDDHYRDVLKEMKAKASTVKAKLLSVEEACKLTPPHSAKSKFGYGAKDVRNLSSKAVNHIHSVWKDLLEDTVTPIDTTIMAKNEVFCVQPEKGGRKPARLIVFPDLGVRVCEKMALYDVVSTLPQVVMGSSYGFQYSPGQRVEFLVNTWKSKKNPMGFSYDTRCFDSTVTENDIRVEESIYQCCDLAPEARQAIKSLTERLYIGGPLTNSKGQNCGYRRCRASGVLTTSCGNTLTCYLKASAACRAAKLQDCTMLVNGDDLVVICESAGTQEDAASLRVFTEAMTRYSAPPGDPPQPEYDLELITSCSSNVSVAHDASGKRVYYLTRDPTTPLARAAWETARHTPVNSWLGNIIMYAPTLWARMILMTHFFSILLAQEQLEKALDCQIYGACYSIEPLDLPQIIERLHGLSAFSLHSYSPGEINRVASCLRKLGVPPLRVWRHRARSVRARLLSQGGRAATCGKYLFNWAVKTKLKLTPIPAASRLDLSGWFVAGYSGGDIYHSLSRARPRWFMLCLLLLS

Consider `CC(C)(C)C1C(O)=C(C2=NS(=O)(=O)c3c(O)cccc32)C(=O)N1Cc1ccc(F)cc1` (stereo not shown) [II-6, 5-tert-Butyl-1-(4-fluoro-benzyl)-4-hydroxy-3-(7-hydroxy-1,1-dioxo-1H-1λ^6-benzo[d]isothiazol-3-yl)-1,5-dihydro-pyrrol-2-one], for which the melting point was > 250 °C. On HCV NS5B570n-BK, the IC50 is 52 nM. Moreover, in data set [1], the IC50 worked out at 3260 nM.
`Cc1cc(CN2C(=O)C(C3=NS(=O)(=O)c4ccccc43)=C(O)[C@@H]2C(C)(C)C)ccc1F` [II-15, (S)-5-tert-Butyl-3-(1,1-dioxo-1H-1λ^6-benzo[d]isothiazol-3-yl)-1-(4-fluoro-3-methyl-benzyl)-4-hydroxy-1,5-dihydro-pyrrol-2-one] returned a melting point of 105 to 111 °C. On HCV NS5B570n-BK, the 50% inhibitory concentration (IC50) came to 138 nM. In data set [1], the IC50 amounted to 125 nM.
Turning to `CC(C)(C)[C@H]1C(O)=C(C2=NS(=O)(=O)c3c(CNS(C)(=O)=O)cccc32)C(=O)N1Cc1ccc(F)cc1` [II-23, N-{3-[(S)-5-tert-Butyl-1-(4-fluoro-benzyl)-4-hydroxy-2-oxo-2,5-dihydro-1H-pyrrol-3-yl]-1,1-dioxo-1H-1λ^6-benzo[d]isothiazol-7-ylmethyl}-methanesulfonamide], the melting point was in the range of 105 to 128 °C. Further, half-maximal inhibition at HCV NS5B570n-BK (IC50) was put at 76 nM. Also, the IC50 in data set [1] came out at 56 nM.
On the same counts, the results for `CC(C)(C)[C@H]1C(O)=C(C2=NS(=O)(=O)c3ccccc32)C(=O)N1Cc1ccc(F)c(Cl)c1` [II-31, (S)-5-tert-Butyl-1-(3-chloro-4-fluoro-benzyl)-3-(1,1-dioxo-1H-1λ^6-benzo[d]isothiazol-3-yl)-4-hydroxy-1,5-dihydro-pyrrol-2-one] are 81 to 96 °C, 208 nM and 288 nM.
In the same order, the values of `CN(Cc1cccc2c1S(=O)(=O)N=C2C1=C(O)C(C(C)(C)C)N(Cc2ccc(F)cc2)C1=O)S(C)(=O)=O` (stereo not shown) [II-35, N-{3-[5-tert-Butyl-1-(4-fluoro-benzyl)-4-hydroxy-2-oxo-2,5-dihydro-1H-pyrrol-3-yl]-1,1-dioxo-1H-1λ^6-benzo[d]isothiazol-7-ylmethyl}-N-methyl-methanesulfonamide] are 115 to 125 °C, 154 nM and 108 nM.
For `Cc1cc(CN2C(=O)C(C3=NS(=O)(=O)c4c(CNS(C)(=O)=O)cccc43)=C(O)C2C(C)(C)C)ccc1F` (stereo not shown) [II-38, N-{3-[5-tert-Butyl-1-(4-fluoro-3-methyl-benzyl)-4-hydroxy-2-oxo-2,5-dihydro-1H-pyrrol-3-yl]-1,1-dioxo-1H-1λ^6-benzo[d]isothiazol-7-ylmethyl}-methanesulfonamide], in data set [1], the half-maximal inhibitory concentration (IC50) came to 35 nM.
The same measure, in the same setting: the same measure for `CC(C)(C)[C@H]1C(O)=C(C2=NS(=O)(=O)c3c(CNS(N)(=O)=O)cccc32)C(=O)N1Cc1ccc(F)cc1` [II-41, Amino-sulfonic acid {3-[(S)-5-tert-butyl-1-(4-fluoro-benzyl)-4-hydroxy-2-oxo-2,5-dihydro-1H-pyrrol-3-yl]-1,1-dioxo-1H-1λ^6-benzo[d]isothiazol-7-ylmethyl}-amide]: 58 nM.
On the same count and under the same terms, then `CC(C)(C)[C@H]1C(O)=C(C2=NS(=O)(=O)c3c(OCS(N)(=O)=O)cccc32)C(=O)N1Cc1ccc(F)cc1` [II-64, {3-[(S)-5-tert-Butyl-1-(4-fluoro-benzyl)-4-hydroxy-2-oxo-2,5-dihydro-1H-pyrrol-3-yl]-1,1-dioxo-1H-1λ^6-benzo[d]isothiazol-7-yloxy}-methanesulfonamide], with 228 nM; and `Cc1cc(CN2C(=O)C(C3=NS(=O)(=O)c4c(CN(C)S(C)(=O)=O)cccc43)=C(O)[C@@H]2C(C)(C)C)ccc1F` [II-77, N-{3-[(S)-5-tert-Butyl-1-(4-fluoro-3-methyl-benzyl)-4-hydroxy-2-oxo-2,5-dihydro-1H-pyrrol-3-yl]-1,1-dioxo-1H-1λ^6-benzo[d]isothiazol-7-ylmethyl}-N-methyl-methanesulfonamide], with 129 nM.
Take `CC(C)(C)[C@H]1C(O)=C(C2=NS(=O)(=O)c3c(OCS(C)(=O)=O)cccc32)C(=O)N1Cc1ccc(F)cc1` [II-81, (S)-5-tert-Butyl-1-(4-fluoro-benzyl)-4-hydroxy-3-(7-methanesulfonylmethoxy-1,1-dioxo-1H-1λ^6-benzo[d]isothiazol-3-yl)-1,5-dihydro-pyrrol-2-one]: the melting point is 143 to 151 °C. Besides, the IC50 in data set [1] was found to be 235 nM.
In the same order, the values of `CC(C)(C)[C@H]1C(O)=C(C2=NS(=O)(=O)c3c(CNS(=O)(=O)N4CCNCC4)cccc32)C(=O)N1Cc1ccc(F)cc1.O=C(O)C(F)(F)F` [II-91, Piperazine-1-sulfonic acid {3-[(S)-5-tert-butyl-1-(4-fluoro-benzyl)-4-hydroxy-2-oxo-2,5-dihydro-1H-pyrrol-3-yl]-1,1-dioxo-1H-1λ^6-benzo[d]isothiazol-7-ylmethyl}-amide; compound with trifluoro-acetic acid] are 95 to 115 °C and 143 nM.
Turning to `NC(=O)c1ncn([C@@H]2O[C@H](CO)[C@@H](O)[C@H]2O)n1` [ribavirin, 1-((2R,3R,4S,5R)-3,4-dihydroxy-5-hydroxymethyl-tetrahydro-furan-2-yl)-1H-[1,2,4]triazole-3-carboxylic acid amide], the “effect on serum levels of HCV-RNA” value with HCV (monotherapy / sole treatment) is “does not lower serum levels of HCV-RNA”. Further, the “patients in whom serum amino transferase levels are reduced to normal” value in the data set on HCV (monotherapy) is recorded as 40%.
